Tests used:
[1] = system: multiple myeloma in a cat; test: Narrow therapeutic band established by potentiating the therapy of multiple myeloma in a cat
[2] = system: cat with multiple myeloma; test: System Functions (linear regression of dexamethasone dose versus food intake) and test of dexamethasone regimens, cat myeloma model; assay type: in vivo
Description: Based on the foregoing analysis, 3 different dexamethasone regimens where designed and hypothesized systems functions were formulated for predicting the impact of a regimen on food intake. […] In general, the system functions are in the form of:
Predicted Food Intake Dayn (tsp)=(dexamethasone dose Dayn) (mg)×Factor Dayn (tsp/mg);
Predicted Food Intake Dayn+1 (tsp)=[(dexamethasone dose Dayn+1) (mg)×Factor Dayn+1 (tsp/mg)]+Predicted Food Intake Dayn;
Predicted Food Intake Dayn+2 (tsp)=[(dexamethasone dose Dayn+2) (mg)×Factor Dayn+2 (tsp/mg)]+Predicted Food Intake Dayn+1;
wherein “Dayn” is the first day of a three to six day dosing cycle and, if the dexamethasone dose is 0.00, this value is converted to 1.00. “Factor Dayn” is regimen specific and was determined by linear regression analysis of the correlation between dexamethasone dose and food intake performed separately for days 1, 2, and 3 of the cycle a given regimen. For example, all first day dexamethasone administrations were identified in the past data. Food intake for those days were compared to the food intake the day before and averaged, then divided by the dose of dexamethasone for each first day (((Food Intake Dayn (tsp)−Dayn−1 (tsp))/number of first days)/dexamethasone Dayn).
The system functions were used to predict the results with three dexarnethasone regimens. Regimen 1 employs a dosing schedule of 0.250 mg dexamethasone 2 days on and then 1 day off.

[3] = system: cat with multiple myeloma; test: Delta Correlation Function analysis of dexamethasone dose versus food intake, cat myeloma model; assay type: in vivo; details: for normalized DCF, food intake versus dexamethasone dose: 1 day off
Description: The inventive method was used to analyze changes from day to day. The data was digitized by substituting either +1 for positive change (dayn+i greater than dayn), 0 (zero) for no change, and −1 for negative change (dayn+i less than dayn). Digitizing the change magnifies small changes by giving small differences the same value as large differences. For example, a positive change is noted as +1 whether the change is 1 milligram or 10 grams.
The inventive method multiplied a digitized change in therapy element by the corresponding digitized change in correlation factor to produce a correlation product. Because the digitized changes are signed (+ or −), changes in the same direction (both positive or both negative) produce a positive product. Changes in opposite directions (one negative and one positive) produce a negative product. The inventive method then provided a rolling average of correlation products over fixed period of time. (A positive average indicates a positive correlation between dose and result.)
There is a phase or timing relationship that should be considered. FIG. 15, drawn to the same scale as FIG. 14, illustrates an eighteen day rolling average of correlation product with a one day offset for the change in food intake. That is, the food intake on dayn+i minus the food intake on dayn is multiplied by the dose on dayn minus the dose on dayn—i. In FIGS. 12-14, the product is the food intake on dayn minus the food intake on dayn—i multiplied by the dose on dayn minus the dose on dayn—i.
Because of the delayed effect of some therapies, the invention provides for an “offset,” or staggering, of the corresponding therapy elements and correlation factors that are multiplied to obtain the normalized Delta Correlation Function (DCF).
A method provided by the invention was used to optimize the dexamethasone regimen based on the correlation factor food intake (i.e., determined the dexamethasome regimen that produces an increase in food intake.) Again, the cat myeloma model was used. […] The normalized DCF was calculated based upon a 24 time point sample (Days 445 to 469) with various offsets.

[4] = thalidomide 1.6 mg, in combination with the other elements of the potentiating protocol

SMILES: C[C@@H]1C[C@H]2[C@@H]3CCC4=CC(=O)C=C[C@]4(C)[C@@]3(F)[C@@H](O)C[C@]2(C)[C@@]1(O)C(=O)CO [dexamethasone]
- side effects at minimum dose ([1]; dexamethasone 0.125 mg (modulated 2 days on, 1 day off), in combination with the other elements of the protocol): without significant side effects
- adverse side effects above end point of narrow band ([1]; dexamethasone doses above 0.162 mg, such as thromboses and peripheral neuropathy): increased
- Factor Dayn of System Function (food intake per dexamethasone dose) ([2]; Regimen 1 (0.250 mg 2 days on, 1 day off), Dayn): −5.11 tsp/mg
- Factor Dayn+1 of System Function ([2]; Regimen 1, Dayn+1): 8.57 tsp/mg
- Factor Dayn+2 of System Function ([2]; Regimen 1, Dayn+2 (day off, dose 0.00 converted to 1.00)): 2.23 tsp/mg
- food intake reached ([2]; Regimen 1: 0.250 mg dexamethasone 2 days on, 1 day off, physiologic limit): 15.5 tsp per day
- Factor Dayn of System Function ([2]; Regimen 2 (0.250 mg 2 days on, then 1 day at 0.125 mg), Dayn): −5.11 tsp/mg
- Factor Dayn+1 of System Function ([2]; Regimen 2, Dayn+1): 8.57 tsp/mg
- Factor Dayn+2 of System Function ([2]; Regimen 2, Dayn+2 (0.125 mg)): −0.53 tsp/mg
- Factor Dayn of System Function ([2]; Regimen 3 (0.125 mg every day, six day cycle), Dayn): −5.11 tsp/mg
- Factor Dayn+1 of System Function ([2]; Regimen 3, Dayn+1): 8.57 tsp/mg
- Factor Dayn+2 of System Function ([2]; Regimen 3, Dayn+2): −0.53 tsp/mg
- Factor Dayn+3 of System Function ([2]; Regimen 3, Dayn+3): −0.10 tsp/mg
- Factor Dayn+4 of System Function ([2]; Regimen 3, Dayn+4): 3.89 tsp/mg
- Factor Dayn+5 of System Function ([2]; Regimen 3, Dayn+5): −1.72 tsp/mg
- normalized DCF, food intake versus dexamethasone dose ([3]; 0.175 mg/day, 2 days on, Days 445 to 469 (24 time points), same day basis (no offset)): −0.16
- normalized DCF, food intake versus dexamethasone dose ([3]; 0.175 mg/day, 2 days on, Days 445 to 469, 2 day offset): +0.37
- normalized DCF, food intake versus dexamethasone dose ([3]; 0.175 mg/day, 2 days on, Days 445 to 469, 3 day offset): −0.09
- normalized DCF, food intake versus dexamethasone dose ([3]; 0.175 mg/day, 2 days on, Days 445 to 469, food intake offset by 1 day): −0.21
- time required for the dexamethasone therapeutic effect to develop ([3]; 0.375 mg, 1 day on, 1 day off regimen): approximately 1 day
- normalized DCF, food intake versus dexamethasone dose ([3]; 0.375 mg, 1 day on, Days 37 to 61, 1 day offset): +0.5
- normalized DCF, food intake versus dexamethasone dose ([3]; 0.375 mg, 1 day on, Days 37 to 61, same day): −0.52

SMILES: O=C1CCC(N2C(=O)c3ccccc3C2=O)C(=O)N1 (centres unmarked) [thalidomide]
- side effects at minimum dose [1, 4]: without significant thalidomide side effects or resistance
- therapeutic effect at minimum dose [1, 4]: controlled the disease
- therapeutic effect above end point of narrow band ([1]; thalidomide doses above 1.8 mg): not increased
- adverse side effects above end point of narrow band ([1]; thalidomide doses above 1.8 mg, such as peripheral neuropathy): increased

Source: patent US20080194922A1, “POTENTIATION FOR MEDICAL THERAPIES” (priority 2005, published 2008)
